Measured values taken from US9624170B2, “4-(piperrazin-1-yl)-pyrrolidin-2-one compounds as monoacylglycerol lipase (MAGL) inhibitors” (TAKEDA PHARMACEUTICAL COMPANY LIMITED, priority 2013, dated 2017).

Biological target: T1, human MAGL (His-hMAGL) (Homo sapiens, UniProt Q99685)
T1 construct: made in house; host or cells: Escherichia coli BL21(DE3)
T1 sequence (Q99685 1-303): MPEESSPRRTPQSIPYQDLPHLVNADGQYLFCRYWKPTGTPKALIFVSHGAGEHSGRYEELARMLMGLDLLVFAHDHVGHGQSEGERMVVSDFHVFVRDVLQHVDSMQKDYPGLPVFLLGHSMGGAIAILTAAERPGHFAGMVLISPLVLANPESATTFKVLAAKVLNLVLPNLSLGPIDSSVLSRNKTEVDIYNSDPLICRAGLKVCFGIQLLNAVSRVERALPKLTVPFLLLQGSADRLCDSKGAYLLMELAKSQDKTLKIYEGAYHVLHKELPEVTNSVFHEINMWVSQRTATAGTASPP
Assay: Measurement of MAGL inhibitory activity by mass spectrometry
Assay type: biochemical
Conditions: 10 μM test compound; substrate 2-arachidonylglycerol, arachidonic acid by RapidFire-mass spectrometry
Method: Thereafter, to each well was added 150 μM 2-arachidonylglycerol (Tocris Bioscience) by 5 μL, and the mixture was incubated at room temperature for 10 min. Then, 2% formic acid (Wako Pure Chemical Industries, Ltd.) was added by 10 μL to discontinue the reaction. Furthermore, acetonitrile (50 μL) containing 3 μM arachidonic acid-d8 (Cayman Chemical Company) was added and the mixture was stirred. The amount of arachidonic acid in the obtained enzyme reaction mixture was calculated by measuring by RapidFire-mass spectrometry and correcting by the amount of arachidonic acid-d8. High Throughput online solid phase extraction was performed using RapidFire 300TM system (Agilent Technologies, Inc.). […] The injection needle was washed with ultrapure water (500 millisecond) and acetonitrile (500 millisecond) to minimize carry-over. […] The RapidFire300 system was controlled by RapidFire UI software version 3.6 (Agilent Technologies, Inc.). The mass spectrometry of the resultant product was performed using […] triple quadrupole mass spectrometer (AB SCIEX) equipped with an electrospray ion sauce (Turbolon SprayTM) in a negative selected reaction monitoring (SRM) mode. The conditions of SRM are shown below. The parameters of the instrument were optimized as follows: capillary temperature 600° C., ion spray voltage -4.5 kV, collision gas 8, curtain gas 15 psi, ion source gas 1 60 psi, ion source gas 2 60 psi. The mass spectrometer was controlled by AnalystTM software version 1.5.1 (AB SCIEX). The peak area integration was analyzed using RapidFire integrator software version 3.6 (Agilent Technologies, Inc.). MAGL inhibitory rate (%) was calculated according to the following calculation formula.

First: O=C1Cc2cc(-c3cccc(N4CC(N5CCN(C(=O)c6nccs6)CC5)CC4=O)c3)ccc2N1 (stereo not drawn) [Example 105, 5-(3-(2-oxo-4-(4-(1,3-thiazol-2-ylcarbonyl)piperazin-1-yl)pyrrolidin-1-yl)phenyl)-1,3-dihydro-2H-indol-2-one]
Second: O=C1CCc2ccc(Nc3cccc(N4CC(N5CCN(C(=O)c6nccs6)CC5)CC4=O)c3)cc2N1 (stereo not drawn) [Example 123, 7-((3-(2-oxo-4-(4-(1,3-thiazol-2-ylcarbonyl)piperazin-1-yl)pyrrolidin-1-yl)phenyl)amino)-3,4-dihydroquinolin-2(1H)-one]
The inhibition at 10 µM of the first is higher: 101% for the first, 97% for the second.

Compared with `O=C(c1nccs1)N1CCN(C2CC(=O)N(c3cccc(-c4cnn5ccccc45)c3)C2)CC1` (stereo not drawn) [Example 106, 1-(3-(pyrazolo[1,5-a]pyridin-3-yl)phenyl)-4-(4-(1,3-thiazol-2-ylcarbonyl)piperazin-1-yl)pyrrolidin-2-one], `N#Cc1ccccc1-c1cccc(N2CC(N3CCN(C(=O)c4nccs4)CC3)CC2=O)c1` (stereo not drawn) [Example 135, 3′-(2-oxo-4-(4-(1,3-thiazol-2-ylcarbonyl)piperazin-1-yl)pyrrolidin-1-yl)biphenyl-2-carbonitrile] is higher in inhibition at 10 µM: 99% for the first, 100% for the second.

Going from `O=C(c1nccs1)N1CCN(C2CC(=O)N(c3ccc4c(ccn4-c4cc(C(F)(F)F)ccn4)c3)C2)CC1` (stereo not drawn) [Example 108, 4-(4-(1,3-thiazol-2-ylcarbonyl)piperazin-1-yl)-1-(1-(4-(trifluoromethyl)pyridin-2-yl)-1H-indol-5-yl)pyrrolidin-2-one] to `O=C(c1nccs1)N1CCN(C2CC(=O)N(c3ccc4c(ccn4-c4ccnc(C(F)(F)F)c4)c3)C2)CC1` (stereo not drawn) [Example 109, 4-(4-(1,3-Thiazol-2-ylcarbonyl)piperazin-1-yl)-1-(1-(2-(trifluoromethyl)pyridin-4-yl)-1H-indol-5-yl)pyrrolidin-2-one], the inhibition at 10 µM rises from 97% to 100%.

Compared with `CS(=O)(=O)Nc1ccc(-c2cccc(N3CC(N4CCN(C(=O)c5nccs5)CC4)CC3=O)c2)cc1` (stereo not drawn) [Example 110, N-(3′-(2-oxo-4-(4-(1,3-thiazol-2-ylcarbonyl)piperazin-1-yl)pyrrolidin-1-yl)biphenyl-4-yl)methanesulfonamide], `CNS(=O)(=O)c1ccc(-c2cccc(N3CC(N4CCN(C(=O)c5nccs5)CC4)CC3=O)c2)cc1` (stereo not drawn) [Example 112, N-methyl-3′-(2-oxo-4-(4-(1,3-thiazol-2-ylcarbonyl)piperazin-1-yl)pyrrolidin-1-yl)biphenyl-4-sulfonamide] is lower in inhibition at 10 µM: 99% for the first, 6% for the second.

Compared with `O=C(c1nccs1)N1CCN(C2CC(=O)N(c3ccc4c(ccn4-c4ccc(C(F)(F)F)nc4)c3)C2)CC1` (stereo not drawn) [Example 111, 4-(4-(1,3-thiazol-2-ylcarbonyl)piperazin-1-yl)-1-(1-(6-(trifluoromethyl)pyridin-3-yl)-1H-indol-5-yl)pyrrolidin-2-one], `O=C(c1nccs1)N1CCN(C2CC(=O)N(c3ccc4c(ccn4-c4ccc(C(F)(F)F)nn4)c3)C2)CC1` (stereo not drawn) [Example 128, 4-(4-(1,3-thiazol-2-ylcarbonyl)piperazin-1-yl)-1-(1-(6-(trifluoromethyl)pyridazin-3-yl)-1H-indol-5-yl)pyrrolidin-2-one] is higher in inhibition at 10 µM: 99% for the first, 101% for the second.

First: O=C(c1nccs1)N1CCN(C2CC(=O)N(c3ccc4[nH]ccc4c3)C2)CC1 (stereo not drawn) [Example 113, 1-(1H-indol-5-yl)-4-(4-(1,3-thiazol-2-ylcarbonyl)piperazin-1-yl)pyrrolidin-2-one]
Second: O=C(c1nccs1)N1CCN(C2CC(=O)N(c3ccc4c(cnn4Cc4ccc(F)cc4)c3)C2)CC1 (stereo not drawn) [Example 114, 1-(1-(4-Fluorobenzyl)-1H-indazol-5-yl)-4-(4-(1,3-thiazol-2-ylcarbonyl)piperazin-1-yl)pyrrolidin-2-one]
The inhibition at 10 µM of the first is lower: 80% for the first, 98% for the second.

`O=C(c1nccs1)N1CCN(C2CC(=O)N(c3cccc(NC4CCCCC4)c3)C2)CC1` (stereo not drawn) [Example 115, 1-(3-(cyclohexylamino)phenyl)-4-(4-(1,3-thiazol-2-ylcarbonyl)piperazin-1-yl)pyrrolidin-2-one] and `CC(=O)N1CCCC(Nc2cccc(N3CC(N4CCN(C(=O)c5nccs5)CC4)CC3=O)c2)C1` (stereo not drawn) [Example 126, 1-(3-((1-acetylpiperidin-3-yl)amino)phenyl)-4-(4-(1,3-thiazol-2-ylcarbonyl)piperazin-1-yl)pyrrolidin-2-one] are the same in inhibition at 10 µM: 97% for the first, 97% for the second.

`CC(=O)Nc1ccc(Nc2cccc(N3CC(N4CCN(C(=O)c5nccs5)CC4)CC3=O)c2)cc1` (stereo not drawn) [Example 116, N-(4-((3-(2-oxo-4-(4-(1,3-thiazol-2-ylcarbonyl)piperazin-1-yl)pyrrolidin-1-yl)phenyl)amino)phenyl)acetamide] and `CC(=O)Nc1cccc(Nc2cccc(N3CC(N4CCN(C(=O)c5nccs5)CC4)CC3=O)c2)c1` (stereo not drawn) [Example 118, N-(3-((3-(2-oxo-4-(4-(1,3-thiazol-2-ylcarbonyl)piperazin-1-yl)pyrrolidin-1-yl)phenyl)amino)phenyl)acetamide] are the same in inhibition at 10 µM: 99% for the first, 99% for the second.

Compared with `CC(=O)N(C)c1ccc(Nc2cccc(N3CC(N4CCN(C(=O)c5nccs5)CC4)CC3=O)c2)cc1` (stereo not drawn) [Example 117, N-methyl-N-(4-((3-(2-oxo-4-(4-(1,3-thiazol-2-ylcarbonyl)piperazin-1-yl)pyrrolidin-1-yl)phenyl)amino)phenyl)acetamide], `O=C(c1nccs1)N1CCN(C2CC(=O)N(c3cccc(Nc4ccc(N5CCCC5=O)cc4)c3)C2)CC1` (stereo not drawn) [Example 119, 1-(3-((4-(2-oxopyrrolidin-1-yl)phenyl)amino)phenyl)-4-(4-(1,3-thiazol-2-ylcarbonyl)piperazin-1-yl)pyrrolidin-2-one] is higher in inhibition at 10 µM: 99% for the first, 100% for the second.

Compared with `O=C1COc2ccc(Nc3cccc(N4CC(N5CCN(C(=O)c6nccs6)CC5)CC4=O)c3)cc2N1` (stereo not drawn) [Example 122, 6-((3-(2-oxo-4-(4-(1,3-thiazol-2-ylcarbonyl)piperazin-1-yl)pyrrolidin-1-yl)phenyl)amino)-2H-1,4-benzoxazin-3(4H)-one], `Cc1cccc(C)c1-c1cccc(N2CC(N3CCN(C(=O)c4nccs4)CC3)CC2=O)c1` (stereo not drawn) [Example 132, 1-(2′,6′-dimethylbiphenyl-3-yl)-4-(4-(1,3-thiazol-2-ylcarbonyl)piperazin-1-yl)pyrrolidin-2-one] is higher in inhibition at 10 µM: 98% for the first, 101% for the second.

First: CN1CC(Nc2cccc(N3CC(N4CCN(C(=O)c5nccs5)CC4)CC3=O)c2)CCC1=O (stereo not drawn) [Example 127, 1-methyl-5-((3-(2-oxo-4-(4-(1,3-thiazol-2-ylcarbonyl)piperazin-1-yl)pyrrolidin-1-yl)phenyl)amino)piperidin-2-one]
Second: COc1ccccc1-c1cccc(N2CC(N3CCN(C(=O)c4nccs4)CC3)CC2=O)c1 (stereo not drawn) [Example 134, 1-(2′-methoxybiphenyl-3-yl)-4-(4-(1,3-thiazol-2-ylcarbonyl)piperazin-1-yl)pyrrolidin-2-one]
The inhibition at 10 µM of the first is lower: 99% for the first, 100% for the second.

Compared with `O=C(c1nccs1)N1CCN(C2CC(=O)N(c3ccc4c(ccn4-c4cnc(C(F)(F)F)cn4)c3)C2)CC1` (stereo not drawn) [Example 129, 4-(4-(1,3-thiazol-2-ylcarbonyl)piperazin-1-yl)-1-(1-(5-(trifluoromethyl)pyrazin-2-yl)-1H-indol-5-yl)pyrrolidin-2-one], `O=C(c1nccs1)N1CCN(C2CC(=O)N(c3cncc(-c4ccccc4)c3)C2)CC1` (stereo not drawn) [Example 131, 1-(5-phenylpyridin-3-yl)-4-(4-(1,3-thiazol-2-ylcarbonyl)piperazin-1-yl)pyrrolidin-2-one] is lower in inhibition at 10 µM: 101% for the first, 91% for the second.
